Results on eleven compounds are retold here after ChEMBL document CHEMBL5042518, “Design of a Potent TLX Agonist by Rational Fragment Fusion” (J Med Chem, 2022).

SMILES strings stand for the structures. Active and inactive are the calls of the source.

In data set [1] the target is T1, Nuclear receptor subfamily 2 group E member 1 (Homo sapiens, UniProt Q9Y466). The data set is described as follows: Agonist activity at human Gal4-fused TLX LBD expressed in human HEK293T cells coexpressing Gal4-VP16 assessed as repressor activity of receptor by measuring decrease in reporter activity measured after 14 hrs by Dual-Glo Luciferase assay. Format: cell-based.

In data set [2] the test system is HEK-293T. The experiment in a line: Cytotoxicity against human HEK293T cells assessed as reduction in cell viability at >=10 uM incubated for 24 hrs by WST-1 assay. Format: toxicity, cell-based. Background: Formazan colour is commonly taken as a measure of viable cells.
Data set [3] deals with HEK-293T. The data set is described as follows: Effect on Gal4-VP16 plasmid transfected in human HEK293T cells assessed as reporter activity at 100 uM incubated for 14 hrs by luciferase assay. Format: functional, cell-based.
A short description of data set [4]: Solubility of the compound in DSF buffer in presence of 2% DMSO. Format: physicochemical.
Data set [5] concerns the target T1, Nuclear receptor subfamily 2 group E member 1. The experiment in a line: Agonist activity at TLX in human T98G cells assessed as upregulation of SIRT1 mRNA expression at 30 uM measured after 8 hrs by qRT-PCR analysis. Format: cell-based. The following applies: filed as agonist. (In general: In qPCR the cycle at which signal appears reflects the starting amount.)

The test system of data set [6] is T98G. The experiment in a line: Upregulation of TLX gene expression in human T98G cells at 30 uM measured after 8 hrs by qRT-PCR analysis. Format: functional, cell-based.
Data set [7] has as its target T1, Nuclear receptor subfamily 2 group E member 1. The following applies: filed as agonist, dose 100.0 µM.
Data set [8] has the same target. The data set is described as follows: Agonist activity at human Gal4-fused TLX LBD expressed in human HEK293T cells coexpressing Gal4-VP16 assessed as repressor activity of receptor by measuring decrease in reporter activity at 30 uM measured after 14 hrs by Dual-Glo Luciferase assay. Format: cell-based.
Data set [9] shares this target. The data set is described as follows: Agonist activity at human full length Gal4-fused TLX transfected in human HEK293T cells coexpressing pFR-TAE-Luc assessed as repressor activity of receptor by measuring decrease in reporter activity by dual-glo luciferase assay. Format: cell-based.
Data set [10] has the same target. The experiment in a line: Binding affinity to recombinant TLX LBD (unknown origin) by differential scanning fluorometry.
The target is the same in data set [11]. The data set is described as follows: Destabilization of recombinant TLX LBD (unknown origin) assessed as change in enthalpy at 100 uM by isothermal titration calorimetry. The following applies: filed as agonist. For orientation: Isothermal titration calorimetry measures the heat released or taken up as one component is titrated into another.
For data set [12] the target is unchanged. The experiment in a line: Agonist activity at TLX (unknown origin) assessed as induction of receptor oligomerization using sGFP-labeled TLX LBD as acceptor and biotin TLX LBD as donor measured after 20 hrs incubation at RT and 2 hrs at 37 degC by HTRF assay.
Data set [13] relates to HEK-293T. The experiment in a line: Cytotoxicity against human HEK293T cells assessed as reduction in cell viability incubated for 24 hrs by WST-1 assay. Format: toxicity, cell-based.
Data set [14] can be described thus: Half life in Sprague-Dawley rat liver microsomes at 10 uM pretreated for 30 mins with NADPH regenerating system followed by incubation with microsomes for 60 mins by HPLC analysis. The following applies: time 90 min. Format: ADME, Microsome.
The target in data set [15] is T1, Nuclear receptor subfamily 2 group E member 1. The data set is described as follows: Agonist activity at TLX in human T98G cells assessed as upregulation of SIRT1 mRNA expression at 3 uM measured after 8 hrs by qRT-PCR analysis. Format: cell-based. The conditions noted are these: filed as agonist.
Data set [16] concerns T98G. The data set is described as follows: Upregulation of TLX gene expression in human T98G cells at 3 uM measured after 8 hrs by qRT-PCR analysis. Format: functional, cell-based.
Data set [17] has as its target T1, Nuclear receptor subfamily 2 group E member 1. The experiment in a line: Destabilization of recombinant TLX LBD (unknown origin) assessed as change in entropy at 100 uM by isothermal titration calorimetry. The following applies: filed as agonist.
The nature of data set [18]: Drug degradation in Sprague-Dawley rat liver microsomes at 10 uM pretreated for 30 mins with NADPH regenerating system followed by incubation with microsomes for 30 mins by HPLC analysis. Format: ADME, Microsome. The following applies: time 60 min, read-out: Drug degradation.
Data set [19] deals with T98G. The data set is described as follows: Upregulation of TLX gene expression in human T98G cells at 10 uM measured after 8 hrs by qRT-PCR analysis. Format: functional, cell-based.
Data set [20] has as its system HEK-293T. The data set is described as follows: Cytotoxicity against human HEK293T cells assessed as reduction in cell viability at >10 uM incubated for 24 hrs by WST-1 assay. Format: toxicity, cell-based.
Data set [21] deals with T1, Nuclear receptor subfamily 2 group E member 1. The experiment in a line: Agonist activity at human Gal4-fused TLX LBD expressed in human HEK293T cells coexpressing Gal4-VP16 assessed as repressor activity of receptor by measuring decrease in reporter activity at 0.03 to 30 uM measured after 14 hrs by Dual-Glo Luciferase assay. The following applies: filed as agonist, dose 0.03-30 µM. Format: cell-based.

For data set [22] the target is unchanged. The data set is described as follows: Agonist activity at human full length Gal4-fused TLX transfected in human HEK293T cells coexpressing pFR-TAE-Luc assessed as repressor activity of receptor by measuring decrease in reporter activity at 0.03 to 30 uM by dual-glo luciferase assay. Format: cell-based. The following applies: dose 0.03-30 µM.

T1 sequence (Q9Y466 whole entry, the tested form may be a part): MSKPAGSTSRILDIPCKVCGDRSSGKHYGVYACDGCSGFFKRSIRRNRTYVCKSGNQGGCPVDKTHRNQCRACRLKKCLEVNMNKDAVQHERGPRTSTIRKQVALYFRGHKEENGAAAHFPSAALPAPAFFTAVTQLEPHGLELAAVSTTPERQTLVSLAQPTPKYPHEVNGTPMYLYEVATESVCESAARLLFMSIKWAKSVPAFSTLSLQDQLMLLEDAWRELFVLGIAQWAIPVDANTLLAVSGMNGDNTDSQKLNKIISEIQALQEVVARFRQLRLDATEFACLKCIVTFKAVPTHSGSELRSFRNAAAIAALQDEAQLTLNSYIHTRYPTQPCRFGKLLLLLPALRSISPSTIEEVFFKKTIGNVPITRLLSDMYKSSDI

For `CC(=O)Nc1cc(-n2cnc(C)c2)cc(C(F)(F)F)c1`, the EC50 in [1] turned out to be 11 µM.
On the same count and under the same terms, the value for `Cc1cn(-c2cc(NC(=O)CCCc3ccc(-c4ccccc4)cc3)cc(C(F)(F)F)c2)cn1` was 1.2 µM.
`Cc1cn(-c2cc(NC(=O)C(c3ccccc3)c3ccccc3)cc(C(F)(F)F)c2)cn1`: the Activity result in the data set on HEK-293T [2] is recorded as “Toxic”.
Consider `Cc1cn(-c2cc(N)cc(C(F)(F)F)c2)cn1`, for which the outcome with HEK-293T [3] and in the data set on T98G [6] was inactive. Moreover, the EC50 in [1] amounted to 20 µM. For the same compound, in [4], the solubility result is recorded as “Soluble”. In addition, in [5], the outcome was Active. Moreover, the ΔTm in data set [7] was -1.69 °C.
In the case of `Cc1cn(-c2cc(NC(=O)COc3cccc4ccccc34)cc(C(F)(F)F)c2)cn1`, the result in [8] was inactive.
For `COc1cc(N)c(Cl)cc1C(=O)Nc1cc(-n2cnc(C)c2)cc(C(F)(F)F)c1`, the half-maximal effective concentration (EC50) in data set [1] was 3 µM.
In the case of `Cc1cn(-c2cc(NC(=O)N3CCN(c4ccc(O)cc4)CC3)cc(C(F)(F)F)c2)cn1`, the EC50 in [1] was 5 µM.
With `CCCCOc1cc(C(=O)Nc2cc(-n3cnc(C)c3)cc(C(F)(F)F)c2)c2ccccc2n1`, the outcome in the data set with HEK-293T [3] and with T98G [16] was inactive. In addition, the concentration giving a half-maximal response (EC50) in data set [1] was 0.25 µM; in data set [9] it was 0.7 µM; in data set [12], 5 µM. Also, the Kd in data set [10] came to 1.6 µM. For the same compound, the deltaH in [11] came out at 114 kcal/mol. In addition, the Activity result with HEK-293T [13] was “Non-Toxic”. For the same compound, the half-life at 10 µM in [14] is 2.37 h. Also, in data set [15], the result was Active. The solubility result in data set [4] was “Soluble”. In addition, the TdeltaS in data set [17] was determined as 123 kcal/mol.
With `Cc1cc(C(=O)N2CCN(C(c3ccccc3)c3ccccc3)CC2)nn1C`, in the data set with HEK-293T [13], the Activity entry is “Non-Toxic”. Also, the metabolised at 1 h, 10 µM in data set [18] was 100%. Further, the outcome in the data set on T98G [19] was inactive. The ΔTm in data set [7] is -1.08 °C.
Take `Cc1cn(-c2cc(NC(=O)C3CCc4[nH]c5ccccc5c4C3)cc(C(F)(F)F)c2)cn1` (stereo not drawn): the result in [8] was inactive.
As for `CC1(C)CC=C(c2ccccc2)c2cc(/C=C/c3ccc(C(=O)O)cc3)ccc21`, the Activity entry in the data set on HEK-293T [20] is “Toxic”. For the same compound, the solubility entry in data set [4] is recorded as “Soluble”. Besides, the outcome in data set [21] was Active. In addition, the outcome in [22] was inactive.

By EC50 is commonly meant the concentration that produces a half-maximal response. What is called ΔTm is the shift of the melting midpoint relative to a reference. The term Kd denotes the equilibrium constant for the complex coming apart. Broadly, the half-life is the time needed for the level to fall by half in the phase considered.
